Laboratory results from ChEMBL document CHEMBL3817804 (Medchemcomm, 2016).

How the values were obtained:
[1] = biological target: T1, Solute carrier family 15 member 1 (Oryctolagus cuniculus, UniProt P36836); test: Inhibition of [3H]-D-Phe-L-Gln uptake at rabbit PepT1 expressed in Xenopus laevis oocytes at pH 5.5 measured after 1 hr by scintillation counting method; assay type: cell-based
T1 sequence (P36836 whole entry): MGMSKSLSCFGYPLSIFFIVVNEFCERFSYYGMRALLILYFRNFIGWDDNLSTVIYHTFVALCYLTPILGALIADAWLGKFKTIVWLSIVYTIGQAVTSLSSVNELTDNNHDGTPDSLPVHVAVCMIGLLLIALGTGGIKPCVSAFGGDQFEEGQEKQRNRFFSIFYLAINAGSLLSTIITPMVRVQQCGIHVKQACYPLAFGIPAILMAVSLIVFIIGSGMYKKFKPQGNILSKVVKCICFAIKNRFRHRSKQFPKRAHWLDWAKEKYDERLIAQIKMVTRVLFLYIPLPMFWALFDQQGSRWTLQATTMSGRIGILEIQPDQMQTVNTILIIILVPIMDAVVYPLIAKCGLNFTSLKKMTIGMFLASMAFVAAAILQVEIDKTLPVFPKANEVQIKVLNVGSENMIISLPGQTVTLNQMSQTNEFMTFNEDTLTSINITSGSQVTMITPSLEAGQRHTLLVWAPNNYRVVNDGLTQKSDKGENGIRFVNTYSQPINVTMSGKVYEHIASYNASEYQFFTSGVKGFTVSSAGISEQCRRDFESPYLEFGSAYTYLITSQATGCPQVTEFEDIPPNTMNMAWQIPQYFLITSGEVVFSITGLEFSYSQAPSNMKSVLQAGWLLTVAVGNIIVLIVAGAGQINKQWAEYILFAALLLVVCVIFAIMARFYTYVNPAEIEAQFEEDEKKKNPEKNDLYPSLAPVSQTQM

[2] = biological target: T1, Solute carrier family 15 member 1; test: Substrate activity at rabbit PepT1 expressed in Xenopus laevis oocytes assessed as drug transportation across membrane under holding potential at -30 mV at 2 mM by two electrode voltage-clamp method; assay type: ADME, cell-based; conditions: 2000 µM

Ki [1]: 1110 µM
Activity [2]: 322 nA
Structure (SMILES): C/C=C/C[C@H](C)[C@@H](OC(=O)CNC(=O)C[C@@H](NC(=S)[C@H](C)N)C(=O)O)[C@@H]1C(=O)N[C@@H](CC)C(=O)N(C)CC(=O)N(C)[C@H](CC(C)C)C(=O)N[C@H](C(C)C)C(=O)N(C)[C@H](CC(C)C)C(=O)N[C@H](C)C(=O)N[C@H](C)C(=O)N(C)[C@H](CC(C)C)C(=O)N(C)[C@H](CC(C)C)C(=O)N(C)[C@H](C(C)C)C(=O)N1C
